For data set [1] the following is noted: cited from earlier work. The source says: The ionic strength of the polycation plays also an important role in the formation of such particles. […] PMB–PP NPs could therefore be formed.
In data set [2] the test system is 50 multidrug-resistant Gram-negative bacterial strains. On the set-up: method as in PMID 33045992. Conditions: cited from earlier work.
For data set [3], the system named is lipase from porcine pancreas. Briefly: Degradation study with lipase. In kind it is in vitro ADME. Conditions: porcine pancreatic lipase, 37 °C, sampling 0-24 h, absorbance 210 nm, mean n = 3. The procedure: Enzymatic degradation of free PMB and PMB being incorporated into NPs was evaluated with lipase. Lipase solution was prepared by dissolving 0.5 g of the enzyme in 10 mL of digestion medium (2 mM Tris buffer with 5 mM CaCl2 and 150 mM NaCl). After homogenization for 10 min, the enzyme mixture was centrifuged at 12,000 rpm (Sigma 3-18KS, Austria) for 15 min at 4 °C.[17] Thereafter, 2 mL of the supernatant liquid was added to 4 mL of 0.01% (m/v) PMB–PP NPs suspension and incubated at 37 °C under constant shaking using a ThermoMixer (Eppendorf, Hamburg, Germany). Aliquots of 100 μL were withdrawn at predetermined time points (0, 1, 2, 4, 6, 12, and 24 h) and transferred to a 96-well microplate (μClear 96-well plates, Greiner bio-one, Austria). PMB–PP NPs and PMB suspension without lipase served as negative control and were incubated under the same conditions. […] The same settings were applied for PMB. The PMB concentration was determined using a calibration curve with increasing concentrations of PMB ranging from 0.78 to 50 μM.
Degradation was evaluated by quantifying the % remaining amount of PMB by the following equation: [drawing 3]

Like-named read-outs stand apart in the source and are kept apart here. A value given as a limit tells only on which side of the number the result lay.

As to Polymyxin B sulfate [PMB], the isoelectric point in data set [1] was 10.74. The “MICs (minimum inhibitory concentrations)” value in data set [2] (44 of 50 multidrug-resistant Gram-negative bacterial strains) was no less than 4 µg/mL; in data set [2] (the other 6 of 50 multidrug-resistant Gram-negative bacterial strains) it was 2 µg/mL. Further, in data set [3], the “PMB degraded after lipase exposure” value was found to be 39.32%.

The values above are taken from PMC10265664, “Peptide Antibiotic–Polyphosphate Nanoparticles: A Promising Strategy to Overcome the Enzymatic and Mucus Barrier of the Intestine” (Biomacromolecules, 2023).
